Data on two molecules can be found in article PMC11729428, “New Potent Inhibitor of Transforming Growth Factor-Beta (TGFβ) Signaling that is Efficacious against Microsatellite Stable Colorectal Cancer Metastasis in Combination with Immune Checkpoint Therapy in Mice” (ACS Pharmacology & Translational Science, 2024).

The subject of one series is ALK5. Particulars: cited from earlier work.
The next series has as its target T1, ALK2 (ACVR1) (Homo sapiens, UniProt Q04771).
T1 construct: purchased Eurofins/DiscoveryX (KINOMEscan service)
Also noted: method as in earlier work. Particulars: reported data ref 15; read-out: Binding constant (Kd) ALK2 (ACVR1); cited from earlier work.

The target of a further series is T2, ALK6 (BMPR1B) (Homo sapiens, UniProt O00238).
T2 construct: purchased Eurofins/DiscoveryX (KINOMEscan service)
T2 sequence (O00238 14-502): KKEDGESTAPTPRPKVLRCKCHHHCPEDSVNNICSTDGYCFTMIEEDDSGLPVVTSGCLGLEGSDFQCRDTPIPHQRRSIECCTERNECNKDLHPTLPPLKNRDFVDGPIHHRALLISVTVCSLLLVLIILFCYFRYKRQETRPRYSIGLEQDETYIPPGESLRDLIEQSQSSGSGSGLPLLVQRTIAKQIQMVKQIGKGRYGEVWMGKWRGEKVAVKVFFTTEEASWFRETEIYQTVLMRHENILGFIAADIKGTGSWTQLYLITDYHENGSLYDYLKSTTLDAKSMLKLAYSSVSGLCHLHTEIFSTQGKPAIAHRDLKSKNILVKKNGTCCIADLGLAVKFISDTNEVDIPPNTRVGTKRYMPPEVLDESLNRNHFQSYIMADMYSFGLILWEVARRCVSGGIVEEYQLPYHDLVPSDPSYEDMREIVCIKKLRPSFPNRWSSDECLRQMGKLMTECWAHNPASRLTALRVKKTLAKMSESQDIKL
The series is described as follows: KINOMEscan competitive binding assay (Kd). Particulars: analyses herein; read-out: Binding constant (Kd) ALK6 (BMPR1B). An excerpt: (§1) 5. Methods for In vitro characterizations of HYL001
(§2) Kinase affinity and selectivity
(§3) Kd values were obtained by an 11 -point
(§4) (BMPR1A), ALK4 (ACVR1B), ALK6 (BMPR1B), ACVR2B and TGFβ R2. […]

Another series concerns the target T3, TGFBR2 (Homo sapiens, UniProt P37173).
T3 construct: purchased Eurofins/DiscoveryX (KINOMEscan service)
The series can be described thus: KINOMEscan competitive binding assay (Kd). To be noted: analyses herein; read-out: Binding constant (Kd) TGFBR2.
Source text: as §1, §2, §3, §4

The next series addresses T4, ALK5 (TGFBR1) (Homo sapiens, UniProt P36897, T204D).
T4 sequence (P36897 200-503 T204D): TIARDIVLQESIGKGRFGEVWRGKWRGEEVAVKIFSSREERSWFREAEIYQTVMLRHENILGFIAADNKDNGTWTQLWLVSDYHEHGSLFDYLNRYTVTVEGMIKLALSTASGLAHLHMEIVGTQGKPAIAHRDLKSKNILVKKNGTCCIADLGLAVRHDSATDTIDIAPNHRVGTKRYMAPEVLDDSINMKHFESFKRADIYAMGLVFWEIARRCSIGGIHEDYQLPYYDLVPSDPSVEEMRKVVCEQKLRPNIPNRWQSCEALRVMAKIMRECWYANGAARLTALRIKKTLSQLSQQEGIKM
The series can be described thus: Radiometric in vitro kinase activity assay (Kinase Profiler). Format: biochemical. As to the method:
as §1
Kinase affinity and selectivity […]
The activity, measured as IC50, of inhibitors was determined by radiometric γ-33P-ATP-mediated in vitro phosphorylation assays, using the Kinase Profiler service from Eurofins Pharma Discovery Services (Wolverhampton, UK) and Eurofins Cerep (Celle L’Evescault, France). Compounds, prepared in 100% DMSO, were tested using a 9-point curve with half -log serial dilutions (1–10,000 nM). […]

Series [1] is described as follows: Plasma protein binding by rapid equilibrium dialysis, human plasma. Particulars: for fraction unbound at 4 h, 5 µM: plasma. On the procedure:
(§5) 5. Methods for In vitro characterizations of HYL001 […]
(§6) Rapid equilibrium dialysis was performed in triplicates with a rapid equilibrium dialysis (RED) by Sai Life Sciences Lt. (Telangana, India). The RED device contains a dialysis membrane with a molecular weight cut -off […]
(§7) of 8,000 Da, separating two chambers for plasma and buffer, respectively. […]
(§8) were added to the plasma chamber, versus phosphate buffer saline (pH 7.4) to the buffer chamber. Dialysis was performed for 4 h with 100 RPM shaking at 37 °C. […]
(§9) compounds in plasma were either frozen immediately (T0 sample), or incubated at 37 °C for 4 h without dialysis (non-dialysed), respectively.
(§10) Following dialysis, an aliquot was removed from either chamber and diluted with equal volume of opposite matrix to nullify the matrix effect. Similarly, buffer was added to recovery and stability samples. Next, acetonitrile (containing internal standard, glipizide) was added to the mixtures for protein precipitation and vortexed for 5 minutes. The samples were centrifuged at 4000 RPM at 4 °C for 10 min and the supernatant was submitted for liquid chromatography mass spectrometry (LC-MS/MS) analysis. Samples were monitored for parent compound using multiple reaction monitoring (MRM) mode.
(§11) The peak area ratios (PAR, analyte versus internal standard) in plasma vs bufffer were used to determine the fraction of compound bound to plasma proteins. The following equation was used to determine the extent of plasma protein binding: percent free drug = 100% x (PARbuffer / PARplasma); percent bound drug = 100 - % free drug. Recovery was calculated as 100% x (PARplasma + PARbuffer)dialysed / (PARplasma)non-dialysed; stability as 100% x (PAR)non-dialysed / (PARplasma)frozen at T0. […]
A general note: In equilibrium dialysis free small molecules cross a membrane that holds back macromolecules.

Series [2] is described as follows: Plasma protein binding by rapid equilibrium dialysis, mouse plasma. On the procedure: as §5, §6, §7, §8, §9, §10, §11
A short description of series [3]: Plasma pharmacokinetics after single oral administration in mice. Format: in vivo. Particulars: male, mouse, 71 mg/kg. On the procedure:
We assessed the in vivo pharmacokinetic properties of HYL001 after a single oral administration (dose of 71 mg/kg) in BALB/c mice as well as in Sprague–Dawley (SD) Rats. Liquid chromatography–tandem mass spectrometry (LC/MS/MS) was used for the determination of HYL001 in plasma (Figure S2 and Table 2).
6. Methods for in vivo characterizations of HYL001 […]
WinNonlin software (Version 8.0) […]

By IC50 is commonly meant the concentration that inhibits the measured activity by half. As usually defined, the Kd is the constant that tells how readily two partners part at equilibrium. In general, fraction unbound refers to free concentration divided by total concentration. Low readings indicate little free substance, high ones much free substance. As usually defined, the half-life is the time needed for the level to fall by half in the phase considered. Lower therefore signals rapid decline. The AUC(0-inf) is the area under the concentration-time curve extrapolated to infinity. By AUC(0-t) is commonly meant exposure summed from dosing to a finite time, without extrapolation to infinity. A high value points to more exposure. The term CL/F denotes the apparent clearance, not corrected for the fraction that reaches the circulation. Broadly, the Cmax is the maximum level reached in the sampled fluid or tissue. The term Tmax denotes the time at which the peak concentration occurs.

T3 sequence (P37173 23-567): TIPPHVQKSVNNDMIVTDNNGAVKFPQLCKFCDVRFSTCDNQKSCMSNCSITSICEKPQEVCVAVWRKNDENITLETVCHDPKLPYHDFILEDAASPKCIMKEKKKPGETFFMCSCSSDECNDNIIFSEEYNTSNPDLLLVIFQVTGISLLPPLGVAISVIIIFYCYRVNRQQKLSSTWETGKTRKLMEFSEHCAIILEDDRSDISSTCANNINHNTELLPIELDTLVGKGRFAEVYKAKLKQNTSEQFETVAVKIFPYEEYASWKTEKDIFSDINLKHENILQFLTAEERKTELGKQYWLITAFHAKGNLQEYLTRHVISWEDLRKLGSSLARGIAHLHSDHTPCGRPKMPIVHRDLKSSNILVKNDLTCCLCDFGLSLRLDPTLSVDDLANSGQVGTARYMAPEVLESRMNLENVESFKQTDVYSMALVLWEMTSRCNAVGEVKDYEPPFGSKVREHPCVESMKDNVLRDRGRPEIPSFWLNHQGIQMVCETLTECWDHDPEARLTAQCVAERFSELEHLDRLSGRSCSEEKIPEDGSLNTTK
T1 sequence (Q04771 21-509): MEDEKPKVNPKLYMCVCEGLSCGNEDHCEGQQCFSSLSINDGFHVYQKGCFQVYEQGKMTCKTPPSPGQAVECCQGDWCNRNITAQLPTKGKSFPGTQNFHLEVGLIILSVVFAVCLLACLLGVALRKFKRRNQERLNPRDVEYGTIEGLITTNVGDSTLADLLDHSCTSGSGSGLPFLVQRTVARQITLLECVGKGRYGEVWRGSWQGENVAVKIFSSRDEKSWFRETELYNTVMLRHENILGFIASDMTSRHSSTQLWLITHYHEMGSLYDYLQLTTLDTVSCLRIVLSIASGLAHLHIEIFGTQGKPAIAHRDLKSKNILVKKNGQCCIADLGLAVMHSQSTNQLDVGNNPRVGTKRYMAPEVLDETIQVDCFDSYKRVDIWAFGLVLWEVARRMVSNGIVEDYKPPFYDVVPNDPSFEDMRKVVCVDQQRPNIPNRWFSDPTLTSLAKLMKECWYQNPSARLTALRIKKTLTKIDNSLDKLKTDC

`Cc1cccc(-c2nn3c(c2-c2ccnc4ccc(C(N)=O)cc24)CCC3)n1` [galunisertib]: the IC50 in the series on ALK5 is […]. The Kd on ALK2 (ACVR1) was 35700 nM.

With `Cc1cccc(-c2nn3c(c2-c2ccnc4ccc(O)cc24)CCC3)n1` [HYL001, 4-(2-(6-Methylpyridin-2-yl)-5,6-dihydro-4H-pyrrolo[1,2-b]pyrazol-3-yl)quinolin-6-ol], the results for the Kd on ALK6 (BMPR1B) and at TGFBR2 were 160 nM and 2000 nM, respectively. For the same molecule, at ALK5 (TGFBR1), the “Fold higher ALK5 IC50 than that of vactosertib” value was “around 3.5 fold”. The “Fold increase (in vitro potency) compared to galunisertib” value on ALK5 (TGFBR1) (ALK5 IC50) was around 2.5 fold. Besides, at ALK5 (TGFBR1) (recombinant TGFBR1 fragment 200–end (T204D), read-out: kinase inhibition IC50, ALK5 (TGFBR1)), the IC50 stood at 177 nM. Moreover, the “% Bound Mean ± SD” value in series [1] (human plasma, 5 µM, n=3) is reported as around 91%. In addition, the “% Compound remaining at 4 hrs” value came out at 101.1% in series [1] (human plasma, 37 °C) and 113.1% in series [2] (mice plasma, 37 °C). Besides, the recovery at 4 h, 5 µM was 101% in series [1] (human, plasma (rapid equilibrium dialysis device), pH 7.4) and 112% in series [2] (mouse, plasma (rapid equilibrium dialysis device), pH 7.4). For the same molecule, the fraction unbound at 4 h, 5 µM was 0.084 in series [1] (human, pH 7.4, % Bound Mean ± SD, human plasma, 5 µM, n=3); 0.084 in series [1] (human, pH 7.4, % Free fraction, human plasma); 0.048 in series [2] (mouse, plasma, pH 7.4). In addition, the half-life in series [3] (BALB/c, po) was around 2.5 h. The molecule also registered an AUC(0-inf) in series [3] (mice (♂ BALB/c)) of 4110 ng·h/mL. In addition, the AUC(0-t) in series [3] (mice (♂ BALB/c)) is 3520 ng·h/mL. For the same molecule, the CL/F in series [3] (mice (♂ BALB/c)) is 288 mL/min/kg. The same molecule registered a Cmax in series [3] (mice (♂ BALB/c)) of 2050 ng/mL. In addition, in series [3] (mice (♂ BALB/c)), the Tmax stood at 0.25 h. In series [3] (mice (♂ BALB/c), read-out: Vss/F), the Vd/F was 66.7 L/kg.
